# Results: patent US10473647B1, “Peptides for use in treatment and diagnosis of type 1 diabetes” (ImmusanT, Inc., priority 2014, dated 2019)
# Non-standard residues stand in square brackets, D forms with d. pGlu = O=C1CC[C@@H](C(=O)O)N1
# Columns and labels:
# Type in all cases: cell-based, human
# [1] = tested on: whole blood from subjects with T1D and Celiac disease; assay: Whole blood cytokine release assay, IL-2 (MAGPIX), Example 1; settings: for Whole blood IL-2 release / Whole blood IL-2 release, fold-change over medium only: 10 uM; for subjects with elevated whole blood IL-2 release: individual 17mer 20 μg/mL, four subjects, blood 6 days after commencing oral gluten challenge
# [2] = tested on: whole blood from subjects with T1D and Celiac disease; assay: Whole blood cytokine release assay, IFN-γ (MAGPIX), Example 1; settings: for Whole blood IFNg release / Whole blood IFNg release, fold-change over medium only: 10 uM; for subjects with elevated whole blood IFN-γ release: individual 17mer 20 μg/mL, four subjects, blood 6 days after commencing oral gluten challenge
# [3] = tested on: whole blood from subjects with T1D and Celiac disease; assay: Whole blood cytokine release assay, IP-10 (MAGPIX), Example 1; settings: for Whole blood IP-10 release / Whole blood IP-10 release, fold-change over medium only: 10 uM; for subjects with elevated whole blood IP-10 release (2-fold greater than medium alone): individual 17mer 20 μg/mL, four subjects, blood 6 days after commencing oral gluten challenge
# [4] = subject 1, day 0 since oral challenge
# [5] = subject 1, day 6 since oral challenge
# [6] = subject 2, day 0 since oral challenge
# [7] = subject 2, day 6 since oral challenge
# [8] = subject 6, day 0 since oral challenge
# [9] = subject 6, day 6 since oral challenge
# [10] = subject 7, day 0 since oral challenge
# [11] = subject 7, day 6 since oral challenge
substance,measurement,setting,value
"(pE)PEQPIPEQPQPYPQQ-NH2 ([pGlu]PEQPIPEQPQPYPQQ-NH2; SMILES CC[C@H](C)[C@H](NC(=O)[C@@H]1CCCN1C(=O)[C@H](CCC(N)=O)NC(=O)[C@H](CCC(=O)O)NC(=O)[C@@H]1CCCN1C(=O)[C@@H]1CCC(=O)N1)C(=O)N1CCC[C@H]1C(=O)N[C@@H](CCC(=O)O)C(=O)N[C@@H](CCC(N)=O)C(=O)N1CCC[C@H]1C(=O)N[C@@H](CCC(N)=O)C(=O)N1CCC[C@H]1C(=O)N[C@@H](Cc1ccc(O)cc1)C(=O)N1CCC[C@H]1C(=O)N[C@@H](CCC(N)=O)C(=O)N[C@@H](CCC(N)=O)C(N)=O) [SEQ ID NO: 42, gluten peptide, reference compound]",Whole blood IL-2 release,[1]; [4],3.2 pg/mL
same,"Whole blood IL-2 release, fold-change over medium only",[1]; [4],1.00
same,Whole blood IL-2 release,[1]; [5],3.2 pg/mL
same,"Whole blood IL-2 release, fold-change over medium only",[1]; [5],1.00
same,Whole blood IL-2 release,[1]; [6],3.2 pg/mL
same,"Whole blood IL-2 release, fold-change over medium only",[1]; [6],1.00
same,Whole blood IL-2 release,[1]; [7],22.4 pg/mL
same,"Whole blood IL-2 release, fold-change over medium only",[1]; [7],7.00
same,Whole blood IL-2 release,[1]; [8],23.3 pg/mL
same,"Whole blood IL-2 release, fold-change over medium only",[1]; [8],4.71
same,Whole blood IL-2 release,[1]; [9],134.3 pg/mL
same,"Whole blood IL-2 release, fold-change over medium only",[1]; [9],31.67
same,Whole blood IL-2 release,[1]; [10],106.1 pg/mL
same,"Whole blood IL-2 release, fold-change over medium only",[1]; [10],1.69
same,Whole blood IL-2 release,[1]; [11],27.8 pg/mL
same,"Whole blood IL-2 release, fold-change over medium only",[1]; [11],0.66
same,Whole blood IFNg release,[2]; [4],42 pg/mL
same,"Whole blood IFNg release, fold-change over medium only",[2]; [4],0.76
same,Whole blood IFNg release,[2]; [5],72 pg/mL
same,"Whole blood IFNg release, fold-change over medium only",[2]; [5],1.09
same,Whole blood IFNg release,[2]; [6],3.3 pg/mL
same,"Whole blood IFNg release, fold-change over medium only",[2]; [6],0.85
same,Whole blood IFNg release,[2]; [7],8.6 pg/mL
same,"Whole blood IFNg release, fold-change over medium only",[2]; [7],1.77
same,Whole blood IFNg release,[2]; [8],96 pg/mL
same,"Whole blood IFNg release, fold-change over medium only",[2]; [8],0.99
same,Whole blood IFNg release,[2]; [9],278 pg/mL
same,"Whole blood IFNg release, fold-change over medium only",[2]; [9],2.84
same,Whole blood IFNg release,[2]; [10],170 pg/mL
same,"Whole blood IFNg release, fold-change over medium only",[2]; [10],0.71
same,Whole blood IFNg release,[2]; [11],102 pg/mL
same,"Whole blood IFNg release, fold-change over medium only",[2]; [11],0.68
same,Whole blood IP-10 release,[3]; [4],235 pg/mL
same,"Whole blood IP-10 release, fold-change over medium only",[3]; [4],0.89
same,Whole blood IP-10 release,[3]; [5],325 pg/mL
same,"Whole blood IP-10 release, fold-change over medium only",[3]; [5],0.97
same,Whole blood IP-10 release,[3]; [6],336 pg/mL
same,"Whole blood IP-10 release, fold-change over medium only",[3]; [6],1.26
same,Whole blood IP-10 release,[3]; [7],1269 pg/mL
same,"Whole blood IP-10 release, fold-change over medium only",[3]; [7],4.06
same,Whole blood IP-10 release,[3]; [8],3409 pg/mL
same,"Whole blood IP-10 release, fold-change over medium only",[3]; [8],12.30
same,Whole blood IP-10 release,[3]; [9],10000 pg/mL
same,"Whole blood IP-10 release, fold-change over medium only",[3]; [9],49.76
same,Whole blood IP-10 release,[3]; [10],713 pg/mL
same,"Whole blood IP-10 release, fold-change over medium only",[3]; [10],0.96
same,Whole blood IP-10 release,[3]; [11],2549 pg/mL
same,"Whole blood IP-10 release, fold-change over medium only",[3]; [11],2.86
NVGADIKKTMEGPVEGR [SEQ ID NO: 69],subjects with elevated whole blood IL-2 release,[1],Only Subject 7 responded
same,subjects with elevated whole blood IFN-γ release,[2],Only Subject 7 responded
same,subjects with elevated whole blood IP-10 release (2-fold greater than medium alone),[3],Only Subject 7 responded
GRTGTYILIDMVLNRMA [SEQ ID NO: 12],subjects with elevated whole blood IL-2 release,[1],consistently stimulated
same,subjects with elevated whole blood IFN-γ release,[2],in two subjects
same,subjects with elevated whole blood IP-10 release (2-fold greater than medium alone),[3],consistently stimulated
WESGCTVIVMLTPLVED [SEQ ID NO: 67],subjects with elevated whole blood IL-2 release,[1],Only Subject 7 responded
same,subjects with elevated whole blood IFN-γ release,[2],Only Subject 7 responded
same,subjects with elevated whole blood IP-10 release (2-fold greater than medium alone),[3],Only Subject 7 responded
